Experimental data from patent EP0341213A2, “5-Aryl-substituted-2,3-dihydro-imidazo [1,2-a]furo[3,2-c]- or thieno[2,3-c]pyridines” (SANDOZ AG, priority 1988, dated 1989).

Experiments:
[1] = biological target: T1, platelet activating factor (PAF) receptor (Homo sapiens, UniProt P25105); assay: Human Platelet PAF Receptor Assay test (test A): inhibition of specific binding of [3H]-PAF to platelets
T1 construct: endogenous in cells; host or cells: human platelets
From the text: The compounds of formula I in free base form or in pharmaceutically acceptable acid addition salt form, hereinafter referred to as "the compounds", are indicated for use as platelet activating factor (PAF) receptor antagonists, as indicated by their ability to inhibit specific binding of [^3H)-PAF to platelets according to the Human Platelet PAF Receptor Assay test (test A) as described in WO 88/587.

[2] = tested on: PAF-mediated bronchoconstriction; assay: PAF-induced Pulmonary Inflation Pressure (PIP) Increase test (test B); assay type: in vivo; details: po
Description: Moreover, in view of their activity as PAF receptor antagonists, the compounds are indicated for use as inhibitors of PAF-mediated bronchoconstriction, which property is evaluated by the PAF-induced Pulmonary Inflation Pressure (PIP) Increase test (test B) as described in WO 88/587, to generate an EDso (dose needed to effect a 50°/o response).

[3] = tested on: PAF-mediated extravasation; assay: PAF-induced Extravasation test (test C), measured as a function of hemoconcentration; assay type: in vivo; details: po
From the text: Furthermore, the compounds are indicated for use as inhibitors of PAF-mediated extravasation (the extrusion of plasma from the lumen of the blood vessels into the vessel wall and surrounding tissues) measured as a function of hemoconcentration according to the PAF-induced Extravasation test (test C) as described in WO 88/587. From the values obtained an EDso is generated.

T1 sequence (P25105 whole entry): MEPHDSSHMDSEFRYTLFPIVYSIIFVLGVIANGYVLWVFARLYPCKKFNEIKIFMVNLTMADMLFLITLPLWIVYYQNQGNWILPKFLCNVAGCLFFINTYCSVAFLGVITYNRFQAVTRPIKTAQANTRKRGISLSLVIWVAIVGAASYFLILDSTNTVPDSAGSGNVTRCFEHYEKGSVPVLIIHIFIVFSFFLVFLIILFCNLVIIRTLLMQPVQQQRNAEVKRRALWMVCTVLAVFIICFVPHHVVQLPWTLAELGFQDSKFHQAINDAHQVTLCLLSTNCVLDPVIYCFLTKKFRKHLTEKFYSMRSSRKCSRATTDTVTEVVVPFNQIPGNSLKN

IC50 [1] [µM] | SMILES | ED50 ([2]; dose needed to effect a 50% response, read-out: EDso) [mg/kg] | ED50 [3] [mg/kg] | inhibition at 10 mg/kg ([2]; at 10 mg/kg p.o.) [%] | inhibition at 10 mg/kg ([3]; at 10 mg/kg p.o.) [%]
0.1 | COc1cc(CCc2ccc(C3=Cc4ccsc4C4=NCCN34)cc2)cc(OC)c1OC [Example 1, 2,3-Dihydro-5-[4-[2-(3,4,5-trimethoxyphenyl)ethyl]phenyl]imidazo[1,2-a]thieno[2,3-c]pyridine] | 1 | 1 |  | 
0.07 | COc1cc(CCc2ccc(C3=Cc4oc(C)cc4C4=NCCN34)cc2)cc(OC)c1OC [Example 2, 2,3-Dihydro-8-methyl-5-[4-[2-(3,4,5-trimethoxyphenyl)ethyl]phenyl]imidazo[1,2-a]furo[3,2-c]pyridine] |  |  | 38 | 59
